According to ChEMBL document CHEMBL3879914, “Inhibitors of central nervous system vasoactive inhibitory peptide receptor 2” (2014):

Assays:
[1] = molecular target: T1, Vasoactive intestinal polypeptide receptor 2 (Homo sapiens) (UniProt P41587); assay: (§1) Antagonist activity at recombinant human N-terminal signal peptide/FLAG epitope-tagged Rluc8-fused VIPR2 expressed in HEK293 cells assessed as inhibition of VIP-induced human mVenus-beta-arrestin2 binding at 1 uM preincubated for 5 mins with luciferin, coelenterazine H followed by VIP addition measured after 5 mins by BRET assay relative to control; type: cell-based
T1 sequence (whole entry): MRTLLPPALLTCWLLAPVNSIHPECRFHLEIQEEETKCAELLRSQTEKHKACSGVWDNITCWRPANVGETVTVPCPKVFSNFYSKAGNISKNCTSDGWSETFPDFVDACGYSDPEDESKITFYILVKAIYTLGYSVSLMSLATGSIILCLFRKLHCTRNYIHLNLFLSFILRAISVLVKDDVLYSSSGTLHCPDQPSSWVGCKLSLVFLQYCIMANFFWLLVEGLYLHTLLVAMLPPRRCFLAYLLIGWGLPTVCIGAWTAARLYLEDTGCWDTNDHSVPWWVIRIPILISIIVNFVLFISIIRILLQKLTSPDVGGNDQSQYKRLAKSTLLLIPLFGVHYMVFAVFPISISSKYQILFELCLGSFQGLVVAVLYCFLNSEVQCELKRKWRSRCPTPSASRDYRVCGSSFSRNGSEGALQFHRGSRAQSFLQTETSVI

[2] = molecular target: T1, Vasoactive intestinal polypeptide receptor 2 (Homo sapiens); assay: as §1, with “epitope-tagged” for “epitope-tagged Rluc8-fused”, “cells co-expressing CAMYEL” for “cells”, “cAMP accumulation” for “human mVenus-beta-arrestin2 binding”; type: functional, cell-based
[3] = molecular target: T1, Vasoactive intestinal polypeptide receptor 2 (Homo sapiens); assay: as §1, with “5” for “1”; type: cell-based
[4] = molecular target: T1, Vasoactive intestinal polypeptide receptor 2 (Homo sapiens); assay: as §1, with “0.5” for “1”; type: cell-based
[5] = molecular target: T1, Vasoactive intestinal polypeptide receptor 2 (Homo sapiens); assay: as §1, with “epitope-tagged” for “epitope-tagged Rluc8-fused”, “cells co-expressing CAMYEL” for “cells”, “cAMP accumulation” for “human mVenus-beta-arrestin2 binding”, “5” for “1”; type: functional, cell-based
[6] = molecular target: T1, Vasoactive intestinal polypeptide receptor 2 (Homo sapiens); assay: as §1, with “epitope-tagged” for “epitope-tagged Rluc8-fused”, “cells co-expressing CAMYEL” for “cells”, “cAMP accumulation” for “human mVenus-beta-arrestin2 binding”, “0.5” for “1”; type: functional, cell-based

Row | SMILES | inhibition [1] [%] | inhibition [2] [%] | inhibition [3] [%] | inhibition [4] [%] | inhibition [5] [%] | inhibition [6] [%]
1 | O=C(NC1CCCc2ccccc21)[C@@H](Cc1ccccc1)C[C@H](O)CNS(=O)(=O)c1ccc([N+](=O)[O-])cc1 (stereo partly specified) | 5.9 | 6.6 to 69.5 | 0.6 | 4.8 to 9 | 17.4 to 69.5 | 5.1
2 | O=C(NC[C@@H](O)C[C@@H](Cc1ccccc1)C(=O)N[C@H]1c2ccccc2C[C@H]1O)c1c(Cl)cc(Cl)cc1Cl | 25.3 | 14.8 | 31.5 | 21.9 to 23.9 | 12.3 | 17.6
3 | O=C(NC1CCCc2ccccc21)[C@H](Cc1ccccc1)C[C@H](O)CNS(=O)(=O)c1ccc([N+](=O)[O-])cc1 (stereo partly specified) | 7.4 | 12.4 | 10.2 | 3.3 to 13.8 | 17.5 | 8.8
4 | O=C(O)c1ccc(S(=O)(=O)NC[C@@H](O)C[C@@H](Cc2ccccc2)C(=O)N[C@H]2c3ccccc3C[C@H]2O)cc1 | -1.8 | 6.4 | 0.2 | 6.4 to 13.1 | 26 | 7.4
5 | Cc1cc(S(=O)(=O)NC[C@@H](O)C[C@@H](Cc2ccccc2)C(=O)N[C@H]2c3ccccc3C[C@H]2O)c(C)cc1Cl | 30.2 | 21.6 | 0.6 | 17.6 to 20.9 | 41.1 | 20.6
6 | O=C(NCCc1cccc(Cl)c1)[C@@H](Cc1ccccc1)C[C@H](O)CNS(=O)(=O)c1ccc([N+](=O)[O-])cc1 | 23.4 | 10.7 | 14.7 | 11.1 to 13.8 | 13 | 9.3
7 | COc1cc(C(=O)NC[C@@H](O)C[C@@H](Cc2ccccc2)C(=O)N[C@H]2c3ccccc3C[C@H]2O)cc(OC)c1OC | 37.2 | 20 | 18 | 13.7 to 29.6 | 9.3 | 15.6
8 | N#Cc1ccc(S(=O)(=O)NC[C@@H](O)C[C@@H](Cc2ccccc2)C(=O)N[C@H]2c3ccccc3C[C@H]2O)cc1 | 59.5 | 43.6 | 90.4 | 38.5 to 91.8 | 93.1 | 27.3
9 | O=C(CCl)NC[C@@H](O)C[C@@H](Cc1ccccc1)C(=O)N[C@H]1c2ccccc2C[C@H]1O | 23.7 | 19.2 | 17.5 | 9.9 to 16.6 | 15.6 | 18.4
10 | O=C(NCc1ccccc1)c1ccc(S(=O)(=O)NC[C@@H](O)C[C@@H](Cc2ccccc2)C(=O)N[C@H]2c3ccccc3C[C@H]2O)cc1 | -2 | 32.3 | -7.7 | 4.8 to 41.4 | 90.5 | 25
11 | O=C([C@H](Cc1ccccc1)C[C@H](O)CNS(=O)(=O)c1ccc([N+](=O)[O-])cc1)N1CCOCC1 | 8.9 | -1.6 | -1.2 | -4.3 to 0.6 | 2.4 | -3.8
12 | O=C(NC[C@@H](O)C[C@@H](Cc1ccccc1)C(=O)N[C@H]1c2ccccc2C[C@H]1O)C1CC1 | 37 | 21.1 | 29.1 | -3.8 to 26.6 | 24 | 21
13 | CC1CCC(NC(=O)[C@H](Cc2ccccc2)C[C@H](O)CNS(=O)(=O)c2ccc([N+](=O)[O-])cc2)CC1 (stereo partly specified) | -1.3 | -2.5 | 0.4 | -1.2 to 13.4 | -2.8 | -5
14 | O=C(NC[C@@H](O)C[C@@H](Cc1ccccc1)C(=O)N[C@H]1c2ccccc2C[C@H]1O)c1ccc([N+](=O)[O-])cc1 | 18.6 | 22.3 | 16.4 | -0.5 to 18.8 | 21.1 | 14
15 | O=C(NC[C@@H](O)C[C@@H](Cc1ccccc1)C(=O)N[C@H]1c2ccccc2C[C@H]1O)C(Cl)Cl | 17.4 | 18.3 | 20 | 9.5 to 19.8 | 19.6 | 18.4
16 | CCN(CC)C(=O)[C@H](Cc1ccccc1)C[C@H](O)CNS(=O)(=O)c1ccc([N+](=O)[O-])cc1 | 7.9 | -6.1 | 5.7 | -5.4 to 0.7 | -4.3 | -8.1

Row | SMILES | inhibition [1] [%] | inhibition [2] [%] | inhibition [3] [%] | inhibition [4] [%] | inhibition [5] [%] | inhibition [6] [%]
17 | CCCCCNc1ccc(S(=O)(=O)NC[C@@H](O)C[C@@H](Cc2ccccc2)C(=O)N[C@H]2c3ccccc3C[C@H]2O)cc1 | 2.3 | 19.1 | 11.3 | 2.8 to 15.2 | 19.1 | 10.8
18 | O=C(NC[C@@H](O)C[C@@H](Cc1ccccc1)C(=O)N[C@H]1c2ccccc2C[C@H]1O)C1CCCCCC1 | 16.4 | 17 | 10.5 | 13.8 to 24.4 | 17 | 18.4
19 | O=C(N[C@H]1c2ccccc2C[C@H]1O)[C@H](Cc1ccccc1)C[C@H](O)CNS(=O)(=O)c1ccccc1F | 28.3 | 22.3 | 52 | 5.3 to 40.1 | 28.3 | 28.6
20 | CCCCNC(=O)c1ccc(S(=O)(=O)NC[C@@H](O)C[C@@H](Cc2ccccc2)C(=O)N[C@H]2c3ccccc3C[C@H]2O)cc1 | 2.9 | 5.9 | -5.5 | -0.4 to 7.55 | 20.6 | -0.4
21 | CCCNc1ccc(S(=O)(=O)NC[C@@H](O)C[C@@H](Cc2ccccc2)C(=O)N[C@H]2c3ccccc3C[C@H]2O)cc1 | 2.6 | 11.3 | 6.7 | 4.1 to 15.6 | 24.5 | -2.9
22 | O=C(Cc1cccc(Cl)c1)NC[C@@H](O)C[C@@H](Cc1ccccc1)C(=O)N[C@H]1c2ccccc2C[C@H]1O | 20.1 | 16 | 17.2 | 11.3 to 21.9 | 26.5 | 14.4
23 | O=C(NCc1ccc(F)cc1F)[C@@H](Cc1ccccc1)C[C@H](O)CNS(=O)(=O)c1ccc([N+](=O)[O-])cc1 | 20 | 4.7 to 13.8 | 24 | 21.1 to 23.9 | 13.8 to 18.2 | -5.4
24 | O=C(N[C@H]1c2ccccc2C[C@H]1O)[C@H](Cc1ccccc1)C[C@H](O)CNS(=O)(=O)c1ccccc1C(F)(F)F | 24.8 | 18.8 | 21 | 10.7 to 22.9 | 24.7 | 23
25 | O=C(N[C@H]1c2ccccc2C[C@H]1O)[C@H](Cc1ccccc1)C[C@H](O)CNS(=O)(=O)c1cccc([N+](=O)[O-])c1 | 35.1 | 15.2 | 33.4 | 24.2 to 27.4 | 21.3 | 18.4
26 | O=C(NC[C@@H](O)C[C@@H](Cc1ccccc1)C(=O)N[C@H]1c2ccccc2C[C@H]1O)c1cccc(Br)c1 | 6.8 | 18.5 | 5.2 | -3.8 to 12.8 | 20.3 | 17.4
27 | O=C(NC[C@@H](O)C[C@@H](Cc1ccccc1)C(=O)N[C@H]1c2ccccc2C[C@H]1O)c1cccnc1 | -5.7 | 13.5 | -6.3 | -6.8 to 5.05 | 16.4 | 15.2
28 | CNC(=O)c1ccc(S(=O)(=O)NC[C@@H](O)C[C@@H](Cc2ccccc2)C(=O)N[C@H]2c3ccccc3C[C@H]2O)cc1 | -1.6 | 22.1 | -1 | 6.3 to 34.2 | 69.5 | 13.8
29 | O=C(NC1Cc2ccccc2C1)[C@H](Cc1ccccc1)C[C@H](O)CNS(=O)(=O)c1ccc([N+](=O)[O-])cc1 | 8.1 | 7.5 | 9.8 | -2.7 to 12.9 | 16 | 5.7
30 | O=C(NCc1ccccc1)[C@H](Cc1ccccc1)C[C@H](O)CNS(=O)(=O)c1ccc([N+](=O)[O-])cc1 | 4.4 | -1.3 | 24.2 | 1.8 to 10.7 | -2.9 | -1.1
31 | O=C(NC[C@@H](O)C[C@@H](Cc1ccccc1)C(=O)N[C@H]1c2ccccc2C[C@H]1O)c1ccccn1 | 32.7 | 17.7 | 5.5 | 6.1 to 12.9 | 20.3 | 14.9
